Like-named read-outs stand apart in the source and are kept apart here. *1 amine or outer side, *2 acyl side, *3 side chain or, on linkers, in order; H or OH if unused. Where a SMILES comes first, the peptide text is derived from it. Bridges are numbered along the chain shown (N, C = ends). Where no end group is shown, it is not given here. Side-chain parts run from the residue outwards. [ ]: non-standard residue; d: D form. The star is where a group is joined. PEG8 = NCCOCCOCCOCCOCCOCCOCCOCCOCCC(=O)O; γGlu = O=C(O)[C@H](CCC(=O)[*:2])N[*:1]; Palmitoyl = CCCCCCCCCCCCCCCC(=O)*; Aib = CC(C)(N)C(=O)O
Tests used:
Format in all cases: cell-based
GLP-1 receptor = target: T1, GLP-1 receptor (Homo sapiens, UniProt P43220); assay: cAMP induction, firefly luciferase reporter assay in HEK293 cells co-transfected with GLP-1 receptor; conditions: for GLP-1R relative activity: Table 3, relative to the activity of the native hormone
T1 construct: expressed in transfected cells; host or cells: HEK293
T1 sequence (P43220 24-463): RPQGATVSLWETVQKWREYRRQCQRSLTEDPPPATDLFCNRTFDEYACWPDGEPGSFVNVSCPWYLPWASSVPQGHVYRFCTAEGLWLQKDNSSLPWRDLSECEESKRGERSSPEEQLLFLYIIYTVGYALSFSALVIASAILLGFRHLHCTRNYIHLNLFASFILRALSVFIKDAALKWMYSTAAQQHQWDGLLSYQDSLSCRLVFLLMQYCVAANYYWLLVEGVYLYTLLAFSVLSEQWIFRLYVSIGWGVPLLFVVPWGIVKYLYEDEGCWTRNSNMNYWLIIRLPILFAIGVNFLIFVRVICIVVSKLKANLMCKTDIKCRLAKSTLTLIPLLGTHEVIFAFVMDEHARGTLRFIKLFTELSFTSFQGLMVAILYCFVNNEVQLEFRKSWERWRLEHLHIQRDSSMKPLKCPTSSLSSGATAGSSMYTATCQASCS
Description: (§1) This example describes an exemplary method of testing the biological activity of the peptides of the present disclosures, which method involves assaying cAMP synthesis.

GIP receptor = target: T2, GIP receptor (Homo sapiens, UniProt P48546); assay: cAMP induction, firefly luciferase reporter assay in HEK293 cells co-transfected with GIP receptor; conditions: for GIPR relative activity: Table 3, relative to the activity of the native hormone
T2 sequence (P48546 22-466): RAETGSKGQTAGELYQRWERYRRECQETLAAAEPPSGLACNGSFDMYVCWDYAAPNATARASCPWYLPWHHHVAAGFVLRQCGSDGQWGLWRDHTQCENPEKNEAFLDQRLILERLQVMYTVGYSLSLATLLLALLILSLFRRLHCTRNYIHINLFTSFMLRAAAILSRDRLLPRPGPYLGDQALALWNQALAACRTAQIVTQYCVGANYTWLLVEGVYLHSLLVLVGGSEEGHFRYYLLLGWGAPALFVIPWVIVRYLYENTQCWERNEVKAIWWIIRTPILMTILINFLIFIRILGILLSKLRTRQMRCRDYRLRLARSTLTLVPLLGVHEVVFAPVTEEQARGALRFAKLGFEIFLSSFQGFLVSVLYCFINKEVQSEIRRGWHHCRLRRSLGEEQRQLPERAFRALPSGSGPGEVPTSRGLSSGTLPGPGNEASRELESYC

glucagon receptor = target: T3, glucagon receptor (Homo sapiens, UniProt P47871); assay: cAMP induction, firefly luciferase reporter assay in HEK293 cells co-transfected with glucagon receptor; conditions: for GR relative activity: Table 3, relative to the activity of the native hormone
T3 construct: expressed in transfected cells; host or cells: HEK293
T3 sequence (P47871 26-477): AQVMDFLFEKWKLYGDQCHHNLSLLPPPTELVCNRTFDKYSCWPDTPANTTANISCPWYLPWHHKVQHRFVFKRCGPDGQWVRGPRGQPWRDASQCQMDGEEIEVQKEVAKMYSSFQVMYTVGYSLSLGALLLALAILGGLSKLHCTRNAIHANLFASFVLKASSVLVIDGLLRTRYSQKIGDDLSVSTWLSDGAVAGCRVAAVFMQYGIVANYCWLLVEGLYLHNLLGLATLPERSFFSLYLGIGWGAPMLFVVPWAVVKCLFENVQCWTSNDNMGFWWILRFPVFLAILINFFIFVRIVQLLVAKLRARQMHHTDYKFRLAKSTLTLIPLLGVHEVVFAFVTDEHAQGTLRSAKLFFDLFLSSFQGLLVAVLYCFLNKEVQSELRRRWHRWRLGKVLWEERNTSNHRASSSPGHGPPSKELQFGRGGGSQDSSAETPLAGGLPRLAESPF
Description: as §1

## CCCCCCCCCCCCCCCCC(CC(=O)Nc1ccc(C[C@H](NC(=O)[C@H](CC(=O)O)NC(=O)[C@H](CO)NC(=O)[C@@H](NC(=O)[C@H](Cc2ccccc2)NC(=O)[C@@H](NC(=O)CNC(=O)[C@H](CCC(N)=O)NC(=O)C(C)(C)NC(=O)[C@@H](N)Cc2c[nH]cn2)[C@@H](C)O)[C@@H](C)O)C(=O)N[C@@H](CO)C(=O)N[C@@H](CCCCN)C(=O)N[C@@H](Cc2ccc(O)cc2)C(=O)N[C@@H](CC(C)C)C(=O)N[C@@H](CC(=O)O)C(=O)N[C@@H](CCC(=O)O)C(=O)N[C@@H](CCCNC(=N)N)C(=O)N[C@@H](C)C(=O)N[C@@H](C)C(=O)N[C@@H](CCC(N)=O)C(=O)N[C@@H](CC(=O)O)C(=O)N[C@@H](Cc2ccccc2)C(=O)N[C@H](C(=O)N[C@@H](CCC(N)=O)C(=O)N[C@@H](Cc2c[nH]c3ccccc23)C(=O)N[C@@H](CC(C)C)C(=O)N[C@@H](CC(C)C)C(=O)N[C@@H](CC(=O)O)C(=O)NCC(=O)NCC(=O)N2CCC[C@H]2C(=O)N[C@@H](CO)C(=O)N[C@@H](CO)C(=O)NCC(=O)N[C@@H](C)C(=O)N2CCC[C@H]2C(=O)N2CCC[C@H]2C(=O)N2CCC[C@H]2C(=O)N[C@@H](CO)C(N)=O)C(C)C)cc1)C(=O)O (some centres unmarked) [SEQ ID NO: 150]
GLP-1 receptor
  EC50: 0.004 nM
GIP receptor
  EC50: 0.141 nM
Glucagon receptor
  EC50: 0.006 nM

## CCCCCCCCCCCCCCCC(=O)N[C@@H](CCC(=O)NCCCC[C@H](NC(=O)[C@H](CC(=O)O)NC(=O)[C@H](CO)NC(=O)[C@@H](NC(=O)[C@H](Cc1ccccc1)NC(=O)[C@@H](NC(=O)CNC(=O)[C@H](CCC(=O)O)NC(=O)C(C)(C)NC(=O)[C@@H](N)Cc1c[nH]cn1)[C@@H](C)O)[C@@H](C)O)C(=O)N[C@@H](CO)C(=O)N[C@@H](CCCCN)C(=O)N[C@@H](Cc1ccc(O)cc1)C(=O)N[C@@H](CC(C)C)C(=O)N[C@@H](CC(=O)O)C(=O)N[C@@H](CCC(=O)O)C(=O)N[C@@H](CCCNC(=N)N)C(=O)N[C@@H](C)C(=O)N[C@@H](C)C(=O)N[C@@H](CCC(N)=O)C(=O)N[C@@H](CC(=O)O)C(=O)N[C@@H](Cc1ccccc1)C(=O)N[C@H](C(=O)N[C@@H](CCC(N)=O)C(=O)N[C@@H](Cc1c[nH]c2ccccc12)C(=O)N[C@@H](CC(C)C)C(=O)N[C@@H](CC(C)C)C(=O)N[C@@H](CC(=O)O)C(=O)NCC(=O)NCC(=O)N1CCC[C@H]1C(=O)N[C@@H](CO)C(=O)N[C@@H](CO)C(=O)NCC(=O)N[C@@H](C)C(=O)N1CCC[C@H]1C(=O)N1CCC[C@H]1C(=O)N1CCC[C@H]1C(=O)N[C@@H](CO)C(N)=O)C(C)C)C(=O)O [compound 39] (H-H[Aib]EGTFTSDK([γGlu-Palmitoyl])SKYLDERAAQDFVQWLLDGGPSSGAPPPS-NH2; N-terminus assumed)
GLP-1 receptor; EC50 (nM) at GLP-1 Receptor, Table 4, Example 9, composite of multiple different activity assays
  EC50: 0.008 nM
GIP receptor; EC50 (nM) at GIP Receptor, Table 4, Example 9, composite of multiple different activity assays
  EC50: 0.026 nM
Glucagon receptor; EC50 (nM) at Glucagon Receptor, Table 4, Example 9, composite of multiple different activity assays
  EC50: 1.28 nM

## CCCCCCCCCCCCCCCC(=O)N[C@@H](CCC(=O)NCCCC[C@H](NC(=O)[C@H](CC(=O)O)NC(=O)[C@H](CO)NC(=O)[C@@H](NC(=O)[C@H](Cc1ccccc1)NC(=O)[C@@H](NC(=O)CNC(=O)[C@H](CCC(N)=O)NC(=O)C(C)(C)NC(=O)[C@@H](N)Cc1c[nH]cn1)[C@@H](C)O)[C@@H](C)O)C(=O)N[C@@H](CO)C(=O)N[C@@H](CCCCN)C(=O)N[C@@H](Cc1ccc(O)cc1)C(=O)N[C@@H](CC(C)C)C(=O)N[C@@H](CC(=O)O)C(=O)N[C@@H](CCC(=O)O)C(=O)N[C@@H](CCCNC(=N)N)C(=O)N[C@@H](C)C(=O)N[C@@H](C)C(=O)N[C@@H](CCC(N)=O)C(=O)N[C@@H](CC(=O)O)C(=O)N[C@@H](Cc1ccccc1)C(=O)N[C@H](C(=O)N[C@@H](CCC(N)=O)C(=O)N[C@@H](Cc1c[nH]c2ccccc12)C(=O)N[C@@H](CC(C)C)C(=O)N[C@@H](CC(C)C)C(=O)N[C@@H](CC(=O)O)C(=O)NCC(=O)NCC(=O)N1CCC[C@H]1C(=O)N[C@@H](CO)C(=O)N[C@@H](CO)C(=O)NCC(=O)N[C@@H](C)C(=O)N1CCC[C@H]1C(=O)N1CCC[C@H]1C(=O)N1CCC[C@H]1C(=O)N[C@@H](CO)C(=O)NCC(N)=O)C(C)C)C(=O)O [SEQ ID NO: 205] (H-H[Aib]QGTFTSDK([γGlu-Palmitoyl])SKYLDERAAQDFVQWLLDGGPSSGAPPPSG-NH2)
GLP-1 receptor; EC50 (nM) at GLP-1 receptor, Table 16, Example 24
  EC50: 0.002 nM
GIP receptor; EC50 (nM) at GIP receptor, Table 16, Example 24
  EC50: 0.004 nM
Glucagon receptor; EC50 (nM) at glucagon receptor, Table 16, Example 24
  EC50: 0.005 nM

## Example 8 peptide: Tyr1, AIB2, Glu16/Lys20 lactam, Leu-Ala-Gly 27-29, GPSSGAPPPS 30-39, or a peptide lacking a lactam [mt-226]
GLP-1 receptor; Table 3, Example 8, read-out: GLP-1R EC50
  EC50: 0.097 nM
GLP-1 receptor
  GLP-1R relative activity: 29.90%
GIP receptor; Table 3, Example 8, read-out: GIPR EC50
  EC50: 1.47 nM
GIP receptor
  GIPR relative activity: 1.16%
Glucagon receptor
  GR relative activity: 1.56%

## Example 8 peptide: Tyr1, AIB2, Glu16/Lys20 lactam, Leu-Ala-Gly 27-29, GPSSGAPPPS 30-39, or a peptide lacking a lactam [mt-225] (Y[Aib]QGTFTSDYSIYLDEQAAKEFVNWLLAGGPSSGAPPPSK([Ala-Cys(PEG 40 kDa)-Ac]); lactam 16-20; not fully specified (C-terminus))
GLP-1 receptor
  GLP-1R relative activity: 29.59%
GIP receptor
  GIPR relative activity: 0.90%
Glucagon receptor
  GR relative activity: 1.99%

## H[Aib]QGTFTSDYSKYLDERAAQDFVQWLLDGGPSSGAPPPSK([PEG8-γGlu-Palmitoyl])G-NH2 [SEQ ID NO: 159]
GLP-1 receptor; GLP-1 Receptor EC50, Table 11, Example 18
  EC50: 0.005 nM
GIP receptor; GIP Receptor EC50, Table 11, Example 18
  EC50: 0.002 nM
Glucagon receptor; Glucagon Receptor EC50, Table 11, Example 18
  EC50: 0.006 nM
